Assay results reported in patent US7425548B2, “Materials and methods for immune system stimulation” (Variety Chidren's Hospital, priority 2004, dated 2008).
Where “and” joins values, the source holds several entries; their conditions need not be identical. Equal values may be shown once.

Tests used:
[1] = tested on: HEK293 cells transfected with TLR2/6; assay: TLR signaling, IL-8 ELISA; type: cell-based, human; conditions: HEK/TLR2/6, RR1 0-100 μg/ml, 24 hours
Method: HEK293/TLR2/TLR6 cells (1×10^6) were treated with RR1 (0, 10, 50 and 100 μg/ml) at 37° C. for 24 hours and secreted IL-8 in the medium was analyzed by ELISA protocol.
(§1) TLR signaling. To determine the involvement of TLR signaling, parental HEK293 as well as HEK293 cells transfected with human TLR2, TLR6, TLR2/6 or TLR4/CD14/MD2 genes (cloned into pDUO plasmid), were used. These cells (0.5×10^6/ml) were incubated with 0-100 μg/ml of RR1 for 24 hours. Since these cells produce very low level of TNF-α and detectable levels of IL-8 upon activation, IL-8 secreted into the medium was analyzed using ELISA procedure. Incidentally, the IL-8 synthesis is also under the control of the transcription factor NF-κB.

[2] = tested on: HEK293 cells transfected with TLR6; assay: TLR signaling, IL-8 ELISA; type: cell-based, human; conditions: HEK/TLR6, RR1 0-100 μg/ml, 24 hours
Method: HEK293/TLR6 cells (1×10^6) were treated with RR1 (0, 10, 50, and 100 μg/ml) at 37° C. for 24 hours and secreted IL-8 in the medium was analyzed by ELISA protocol.
as §1

[3] = tested on: NF-κB in RAW264.7 macrophages; assay: NF-κB DNA binding activity of nuclear extracts (ELISA, EMSA); type: cell-based, mouse
Method: The macrophages were treated with 100 μg/ml of RR1 and NF-κB activity of the nuclear extracts analyzed at 2, 4, 8, 14, and 20 hours after incubation using ELISA protocol.
NF-κB activity increased with escalating doses of RR1, reaching a plateau at 500 μg/ml.
NF-κB activity. RAW264.7 cells were incubated with 0, 100, 500 and 1000 μg/ml of RR1 for 8 hours and the nuclear proteins were extracted using the NF-κB activity kit from Active Motif, CA according to manufacturer's ELISA instructions. To visualize the NF-κB activation further, Electrophoretic Mobility Shift Assay (EMSA) was performed (Ghosh, S, and Karin, M., Cell, 2002, 109:S81-96; Young, S. H. et al. J. Biol Chem., 2001, 276:20781-20787; Lebron, F. et al. J Biol Chem., 2003, 278:25001-25008) with the nuclear protein. A double stranded probe that binds NF-κB (5′-[…]-3′, SANTA CRUZ BIOTECHNOLOGY, Santa Cruz, Calif.) was radio labeled with ^32P-ATP, and EMSA performed with 5 μg of nuclear extract. The EMSA reaction mixtures were incubated for 30 minutes at room temperature, and DNA-protein complexes were separated on 6% polyacrylamide gels and visualized by autoradiography. […] The nuclear extracts were analyzed for the protein content, and NF-κB activity analyzed using ELISA kit from ACTIVE MOTIF, Carlsbad, Calif.

[4] = tested on: normal lymphocytes (NK, T and B cells); assay: Activation of lymphocyte subsets, flow cytometry (CD69); type: cell-based, human
Method: Normal lymphocytes were treated with RR1 (0-100 μg/ml) for 24 hours at 37° C. in a CO2 incubator. The cells were stained with a panel of cell specific antibodies conjugated with different fluorochromes: CD3-FITC, CD16/56-PE, CD19-ECD, CD69-PC5 or CD8-FITC, CD4-PE, CD3-ECD, CD69-ECD. The stained cells were analyzed in a Coulter Elite flow cytometer in a 4-color assay. ***p<0.001.
Activation of Lymphocytes. Normal lymphocytes (10^6/ml) were treated with 0-100 μg of RR1 for 24 hours in a CO2 incubator maintained at 37° C. in RPMI medium. The cells were then stained with specific fluorochrome-conjugated monoclonal antibodies for 30 minutes at room temperature and analyzed in a Coulter Elite Flow Cytometer by four and five color immunotyping assay protocol of Alamo and Melnick (Alamo, A. L. and S. J. Melnick Cytometry, 2000, 42:363-370) and the percentage of activation of subsets of lymphocytes such as NK, T and B cells were calculated.

normal lymphocytes = assay: Quantification of cytokine and chemokine synthesis by ELISA; type: cell-based, human; conditions: at 100 pg/ml concentration
[5] = molecular target: T1, CR3 (CD11b) on RAW 264.7 macrophages (Mus musculus, UniProt P05555); assay: Blocking of CR3 with CD11b mAb, glucan-induced TNF-α synthesis; type: cell-based; conditions: anti-CD11b mAb 5 μg/ml, 37° C.
T1 construct: endogenous in cells; host or cells: RAW 264.7 mouse macrophages (ATCC)
T1 sequence (P05555 17-1153): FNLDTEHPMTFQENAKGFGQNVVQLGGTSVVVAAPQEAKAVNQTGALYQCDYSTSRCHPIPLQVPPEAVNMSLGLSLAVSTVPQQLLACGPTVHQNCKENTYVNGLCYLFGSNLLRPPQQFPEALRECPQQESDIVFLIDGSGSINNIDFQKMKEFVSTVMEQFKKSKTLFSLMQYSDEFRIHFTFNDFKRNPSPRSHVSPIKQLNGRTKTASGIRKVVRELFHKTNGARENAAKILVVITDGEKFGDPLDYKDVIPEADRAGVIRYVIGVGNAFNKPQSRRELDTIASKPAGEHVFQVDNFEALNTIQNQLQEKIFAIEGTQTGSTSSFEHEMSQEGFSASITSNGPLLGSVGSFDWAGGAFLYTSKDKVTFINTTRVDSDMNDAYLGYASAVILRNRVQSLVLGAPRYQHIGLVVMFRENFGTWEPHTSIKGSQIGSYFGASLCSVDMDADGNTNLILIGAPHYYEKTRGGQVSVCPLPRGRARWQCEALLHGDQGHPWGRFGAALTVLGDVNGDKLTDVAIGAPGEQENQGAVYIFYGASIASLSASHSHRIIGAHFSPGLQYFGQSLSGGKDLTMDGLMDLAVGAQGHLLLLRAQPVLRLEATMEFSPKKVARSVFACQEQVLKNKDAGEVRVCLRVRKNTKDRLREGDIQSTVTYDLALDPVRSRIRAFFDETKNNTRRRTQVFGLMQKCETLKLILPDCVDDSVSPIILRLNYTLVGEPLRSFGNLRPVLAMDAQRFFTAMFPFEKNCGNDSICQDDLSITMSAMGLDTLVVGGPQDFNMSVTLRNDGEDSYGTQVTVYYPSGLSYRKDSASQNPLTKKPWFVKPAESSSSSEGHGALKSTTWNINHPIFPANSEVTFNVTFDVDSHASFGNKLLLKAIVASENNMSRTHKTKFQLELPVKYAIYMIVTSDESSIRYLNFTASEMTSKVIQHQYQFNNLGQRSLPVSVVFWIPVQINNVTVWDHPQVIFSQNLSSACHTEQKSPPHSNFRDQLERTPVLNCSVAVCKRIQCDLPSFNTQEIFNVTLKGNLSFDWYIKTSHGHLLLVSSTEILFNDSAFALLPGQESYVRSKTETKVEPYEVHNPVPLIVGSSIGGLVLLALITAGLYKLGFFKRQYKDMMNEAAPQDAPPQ
T1 sequence (P11835 24-771 partner): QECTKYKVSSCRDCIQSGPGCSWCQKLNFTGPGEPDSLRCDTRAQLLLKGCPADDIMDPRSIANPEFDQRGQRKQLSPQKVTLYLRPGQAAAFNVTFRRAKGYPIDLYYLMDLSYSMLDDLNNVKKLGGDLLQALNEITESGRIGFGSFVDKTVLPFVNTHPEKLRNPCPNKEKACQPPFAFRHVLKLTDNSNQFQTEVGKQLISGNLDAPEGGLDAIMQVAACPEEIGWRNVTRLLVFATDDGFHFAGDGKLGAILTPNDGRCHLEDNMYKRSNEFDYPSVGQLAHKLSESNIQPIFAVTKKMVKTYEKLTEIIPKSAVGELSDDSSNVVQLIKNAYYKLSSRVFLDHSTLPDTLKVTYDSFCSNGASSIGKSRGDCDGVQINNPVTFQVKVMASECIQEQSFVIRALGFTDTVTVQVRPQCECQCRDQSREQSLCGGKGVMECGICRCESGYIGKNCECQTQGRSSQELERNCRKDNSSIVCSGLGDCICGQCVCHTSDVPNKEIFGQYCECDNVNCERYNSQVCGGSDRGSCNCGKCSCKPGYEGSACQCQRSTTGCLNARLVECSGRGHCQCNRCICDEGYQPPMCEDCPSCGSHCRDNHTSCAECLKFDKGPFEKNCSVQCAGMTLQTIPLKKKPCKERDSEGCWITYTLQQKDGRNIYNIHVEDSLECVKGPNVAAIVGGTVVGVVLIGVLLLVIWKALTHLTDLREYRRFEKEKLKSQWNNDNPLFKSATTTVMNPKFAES
Method: Effect Blocking of CR3 with CD11b mAb on opsonised binding. To examine whether the glucan specific receptors CR3 is involved in the opsonised recognition/binding of RR1 on macrophages, monoclonal antibodies (mAbs) specific for CR3 (Rat antimouse CD11b from BD BIOSCIENCES, San Jose, Calif.) were used for blocking the CR3. […] TNF-α released by the macrophages into the medium was analyzed by ELISA kit (BD Biosciences, San Jose, Calif.) (Brown, G. D. et al. J. Expt. Med., 2002, 196:407-412; Brown, G. D. et al. J. Exp. Med., 2003, 197:1119-1124).

RAW 264.7 cells = assay: RR1-induced TNF-α synthesis with and without CAPE, ELISA; type: cell-based, mouse; conditions: RAW 264.7, RR1 0-1000 μg/ml
Method: The cells were pre-incubated with 10 μg/ml CAPE for 1 hour in 0.5% FBS containing DMEM medium and replaced with medium containing RR1 at varying concentrations for 4 hour at 37° C. The medium was analyzed for secreted TNF-α using ELISA protocol.
RR1-induced TNF-α synthesis. RAW 264.7 cells (0.5×10^6/ml) were plated on 6-well plates with DMEM medium containing 0.5% FBS (starvation). Once the cells were attached, medium was replaced, RR1 was added at 0, 100, 500 and 1000 μg/ml doses and incubated at 37° C. for 24 hours. The medium was analyzed for the secreted TNF-α using the ELISA kit (BD BIOSCIENCES kit, San Jose, Calif.) based on the manufacturer's protocol.
To determine the effect of NF-κB inhibitor CAPE on TNF-α synthesis, RAW 264.7 cells were treated with 10 μg/ml of CAPE for 1 hour at 37° C. followed by treatment with RR1 (0-1000 μg/ml) overnight in the incubator. The secreted TNF-α in the medium was analyzed using ELISA (BD BIOSCIENCES, San Jose, Calif.).

For (1,4)-α-D-glucan [RR1], the IL-8 production [1] was “copious induction of IL-8”, the IL-8 production [2] was “copious induction of IL-8” and the “time of stimulation at which NF-κB activity peaked” value ([3]; 100 μg/ml RR1, ELISA) was 8 h. The “RR1 dose at which NF-κB activity reaches a plateau” value ([3]; 8 hours of stimulation) was 500 to 1000 µg/mL and 500 µg/mL, the “fold activation of NK cells” value ([4]; 100 μg/ml RR1) was greater than 3 fold and the “activation of B cells” value ([4]; 100 μg/ml RR1, 24 hours) was 39%. The “activation of NK cells” value ([4]; 100 μg/ml RR1, 24 hours) was 331%, the “activation of T cells” value ([4]; 100 μg/ml RR1, 24 hours) was 102% and the “synthesis of IL-1β” value (normal lymphocytes) was 1080 pg/mL. For the same substance, the “% reduction of secreted TNF-α” value ([5]; then glucan 100 μg/ml) was 4.25 ± 3.66%, the “% reduction of secreted TNF-α” value ([5]; then glucan 500 μg/ml) was 1.89 ± 0.50% and the “synthesis of TNF-α” value (RAW 264.7 cells) was “dose-dependent increase”.
